Measured values: the NIST ThermoML archive (doi:10.1016/j.jct.2016.12.037)

How the values were obtained:
[1] = 100 kPa, Liquid; for viscosity: Concentric cylinders viscometry; for mass density: Vibrating tube method
[2] = xn = mol fraction of the nth substance listed; conditions: 100 kPa, Liquid, x1 = 1; for viscosity: Concentric cylinders viscometry; for mass density: Vibrating tube method

CCCCn1cc[n+](C)c1.[Cl-] [1-butyl-3-methylimidazolium chloride]
[1]
Conditions | mass density [kg/m3] | viscosity [mPa·s]
348.15 K | 1053.9 | 217
353.15 K | 1051.2 | 162.1
358.15 K | 1048.5 | 123.3
363.15 K | 1045.9 | 95.6
368.15 K | 1043.3 | 75.39
373.15 K | 1040.8 | 60.26

CCCCn1cc[n+](C)c1.[Cl-] [1-butyl-3-methylimidazolium chloride] + CCCC[n+]1ccn(C)c1.O=S(=O)([N-]S(=O)(=O)C(F)(F)F)C(F)(F)F
[2]
Conditions | mass density [kg/m3] | viscosity [mPa·s]
348.15 K | 1053.9 | 217
353.15 K | 1051.2 | 162.1
358.15 K | 1048.5 | 123.3
363.15 K | 1045.9 | 95.6
368.15 K | 1043.3 | 75.39
373.15 K | 1040.8 | 60.26
